Experimental data: patent publication US9127079B2, “Inhibitors of phosphatase and tensin homolog (PTEN) conjugates” (THE UNIVERSITY OF BRITISH COLUMBIA, priority 2009, dated 2015)

Legend:
Assay type in all cases: cell-based, rat
[1] = system: cultured hippocampal neurons; test: Neuronal death by nuclei staining (Hoechst 33342), NMDA excitotoxicity; details: NMDA 20 uM, 1 hour
Protocol: (§1) Dissociated cultures of rat cortical or hippocampal neurons were prepared from 18-d-old Sprague Dawley rat embryos as described previously (Mielke and Wang 2005). To obtain mixed cultures enriched with neurons, uridine (10 μM) and 5-Fluor-T-deoxyuridine (10 μM) were added to the culture medium at 3 d in vitro (DIV) and maintained for 48 h to inhibit non-neuronal cell proliferation before the cultures were returned to the normal culture medium. Mature neurons (12-14 DIV) were used for experiments. […]
(§2) Necrotic neuronal death was quantified by measuring lactate dehydrogenase (LDH) release 20 h after treatments using a Cyto Tox™ 96 assay kit (Promega™, Madison, Wis.). Absorbance readings were measured using a spectrophotometric microplate reader. Apoptotic neuronal death was determined by visualizing the nucleus condensation and fragmentation of neurons stained with Hoechst-33342™. Images were taken with a Leica DMIRE2™ fluorescence microscope. […] These observations were quantified by double-blind counting of apoptotic and total neurons in each visual field and expressed as percentage apoptosis. […] Data are expressed as the difference in apoptosis relative to control and are expressed as a percentage.

[2] = system: cultured hippocampal neurons; test: Neuronal death by LDH assay, NMDA excitotoxicity; details: NMDA 20 uM, 1 hour
Protocol: as §1, §2

nuclear PIP3 = test: Level of nuclear PIP3 after NMDA treatment
Protocol: (§3) Dissociated cultures of rat cortical or hippocampal neurons were prepared from 18-d-old Sprague Dawley rat embryos as described previously (Mielke and Wang 2005). To obtain mixed cultures enriched with neurons, uridine (10 μM) and 5-Fluor-T-deoxyuridine (10 μM) were added to the culture medium at 3 d in vitro (DIV) and maintained for 48 h to inhibit non-neuronal cell proliferation before the cultures were returned to the normal culture medium. Mature neurons (12-14 DIV) were used for experiments.
(§4) In order to induce excitotoxicity, 12-14 DIV cultured neurons were washed and transferred to Mg2+-free extracellular solution (ECS) containing the following (in mM): 25 HEPES acid, 140 NaCl, 33 glucose, 5.4 KCl, and 1.3 CaCl2, with pH 7.35 and osmolarity 320-330 mOsm. ECS and subjected to NMDA-induced excitotoxicity (20 μM NMDA, 10 μM glycine, 60 min at room temperature) or any other experimental conditions as indicated in the texts. Cells were then washed twice with normal ECS, and returned to the original growth conditions until additional assay.
Nuclear extracts were isolated from control and NMDA-treated cell cultures (10^8 cells) using the Panomics™ nuclear extraction kit (Panomics™; catalog number AY2002) as recommended by the manufacturer.

PTEN [3] = test: Immunostaining of endogenous PTEN: nuclear translocation in cultured neurons with NMDA; details: peptide 10 uM, NMDA stimulation
Protocol: as §3, §4

PTEN [4] = test: Western blotting of nuclear fractions from cultured neurons: PTEN nuclear translocation; details: NMDA stimulation
Protocol: as §3
In order to induce excitotoxicity, 12-14 DIV cultured neurons were washed and transferred to Mg2+-free extracellular solution (ECS) containing the following (in mM): 25 HEPES acid, 140 NaCl, 33 glucose, 5.4 KCl, and 1.3 CaCl2, with pH 7.35 and osmolarity 320-330 mOsm. […]
For western blotting, 10 μg of the nuclear extract or 40 μg of total cell lysate (solubilized by 1% SDS, 1 mM EGTA, 1 mM EDTA, 1 mM DTT, 2 mM sodium orthovanadate, and protease inhibitors cocktail in PBS) from each treatment condition was separated with SDS-PAGE, transferred onto a polyvinylidene difluoride (PVDF) membrane, and probed with the relevant antibodies. […] Band intensities were quantified using NIH ImageJ™ software and normalized to the quantity of a nuclear marker or β-tubulin in each sample lane.

Molecule	cell death, nuclei staining [1]	cell death, LDH assay [2]	level of nuclear PIP3 (nuclear PIP3)	PTEN nuclear translocation (endogenous PTEN immunostaining) (PTEN [3])	PTEN nuclear translocation (western blotting of nuclear fractions) (PTEN [4])
CN[C@H](CC(=O)O)C(=O)O [NMDA, N-methyl-D-asparate]	significant cell death	significant cell death	reduced the level of nuclear PIP3	–	–
YGRKKRRQRRR-PEETSEKVENGS (YGRKKRRQRRRPEETSEKVENGS; PTEN K289 interference peptide conjugated to TAT protein transduction domain) [Peptide-K289, TAT protein transduction domain fused to PTEN K289 interference peptide; control for Peptide-K13]	–	–	–	failed to do so	failed to do so
